Source: PMC11436757, “BRCA2 stabilises RAD51 and DMC1 nucleoprotein filaments through a conserved interaction mode” (Nature Communications, 2024)

T1: DMC1 ΔN (Homo sapiens, UniProt Q14565)
T1 construct: DMC1 ΔN (83-340) were cloned into pHAT4; His6 (TEV-cleavable) (N, cleaved yes); made in house; host or cells: E. coli BL21 (DE3)
T1 sequence (Q14565 83-340): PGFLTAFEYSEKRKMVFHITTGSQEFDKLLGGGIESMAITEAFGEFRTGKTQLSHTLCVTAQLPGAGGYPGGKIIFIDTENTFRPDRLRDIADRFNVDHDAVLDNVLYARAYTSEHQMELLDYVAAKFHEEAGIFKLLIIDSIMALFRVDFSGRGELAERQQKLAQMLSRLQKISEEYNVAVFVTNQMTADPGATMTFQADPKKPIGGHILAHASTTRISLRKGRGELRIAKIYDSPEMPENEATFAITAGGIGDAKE

T2: DMC1 ΔN loop mutant (Homo sapiens, UniProt Q14565, A148D/A183D/D180S/D182S/G147I/G149R/G153E/H181G/N178G/P152G/V179L/Y151G)
T2 construct: DMC1 ΔN (83-340) were cloned into pHAT4; made in house
T2 sequence (Q14565 83-340 G147I/A148D/G149R/Y151G/P152G/G153E/N178G/V179L/D180S/H181G/D182S/A183D limits assumed): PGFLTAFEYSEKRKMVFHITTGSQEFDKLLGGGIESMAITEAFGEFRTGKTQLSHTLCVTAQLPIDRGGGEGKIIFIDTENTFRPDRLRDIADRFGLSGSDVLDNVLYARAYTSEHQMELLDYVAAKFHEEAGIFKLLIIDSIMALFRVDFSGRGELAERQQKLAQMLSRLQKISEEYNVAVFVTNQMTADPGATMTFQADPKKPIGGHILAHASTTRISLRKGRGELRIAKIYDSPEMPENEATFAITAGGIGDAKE

T3: DMC1 (Homo sapiens, UniProt Q14565 1-340)
T3 sequence: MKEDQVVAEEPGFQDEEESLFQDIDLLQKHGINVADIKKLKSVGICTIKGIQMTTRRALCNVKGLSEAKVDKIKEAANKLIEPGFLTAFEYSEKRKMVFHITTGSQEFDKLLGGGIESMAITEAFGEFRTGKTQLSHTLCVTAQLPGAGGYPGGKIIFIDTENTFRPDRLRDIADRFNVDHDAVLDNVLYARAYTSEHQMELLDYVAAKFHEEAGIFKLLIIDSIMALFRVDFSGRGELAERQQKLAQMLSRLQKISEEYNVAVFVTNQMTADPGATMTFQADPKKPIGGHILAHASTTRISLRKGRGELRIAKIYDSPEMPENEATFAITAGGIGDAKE

T4: DMC1;BRCA2 Ex14-Tr (Homo sapiens;Homo sapiens, UniProt Q14565;P51587 1-340;, |)
T4 sequence 1: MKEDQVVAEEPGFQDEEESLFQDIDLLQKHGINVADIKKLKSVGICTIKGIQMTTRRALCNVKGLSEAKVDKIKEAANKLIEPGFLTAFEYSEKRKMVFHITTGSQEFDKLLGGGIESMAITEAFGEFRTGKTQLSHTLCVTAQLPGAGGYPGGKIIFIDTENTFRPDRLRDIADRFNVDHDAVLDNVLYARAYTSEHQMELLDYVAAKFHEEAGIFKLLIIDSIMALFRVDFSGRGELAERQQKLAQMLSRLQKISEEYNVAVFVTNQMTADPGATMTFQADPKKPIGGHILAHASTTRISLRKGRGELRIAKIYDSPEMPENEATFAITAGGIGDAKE
T4 sequence 2: RPTKVFVPPFKTKS

T5: DMC1;BRCA2 Ex14 (Homo sapiens;Homo sapiens, UniProt Q14565;P51587 1-340;2387-2420, |)
T5 sequence 1: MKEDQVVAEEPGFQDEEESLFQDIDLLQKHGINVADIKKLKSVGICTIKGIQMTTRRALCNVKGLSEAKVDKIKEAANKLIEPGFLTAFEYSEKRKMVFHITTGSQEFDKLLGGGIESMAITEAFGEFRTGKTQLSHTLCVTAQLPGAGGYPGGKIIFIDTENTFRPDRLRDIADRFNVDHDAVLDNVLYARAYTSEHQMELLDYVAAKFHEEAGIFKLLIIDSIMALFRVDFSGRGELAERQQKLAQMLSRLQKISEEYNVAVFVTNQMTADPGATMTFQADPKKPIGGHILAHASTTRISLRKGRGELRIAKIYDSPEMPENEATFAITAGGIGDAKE
T5 sequence 2: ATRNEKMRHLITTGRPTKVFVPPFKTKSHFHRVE


Key:
[1] = test system: RAD51 L180E-ssDNA filaments; test: EMSA, BRC4-mediated disruption of RAD51 L180E-ssDNA filaments (random sequence ssDNA); format: biochemical; conditions: 100-nt random ssDNA
Description: (§1) To form nucleoprotein filaments, DMC1 and RAD51 was incubated with fluorescent 100-base ssDNA (5’-FAM- […]-3’) at the concentrations indicated in the figures for 30 minutes at 4 °C in reaction buffer. For DMC1, reaction buffer is 25 mM TEA (triethanolamine) pH 7.5, 1 mM ATP, 2 mM MgCl2, 0.1 mg/ml BSA, 2 mM DTT, 200 mM KCl. For RAD51, reaction buffer is 50 mM TEA (triethanolamine), 2 mM ATP, 0.5 mM MgCl2, 2 mM DTT. For assays requiring incomplete nucleoprotein filament assembly, the reaction buffer consisted of 50 mM TAE (tris, acetate, EDTA) pH 7.5, 2 mM ATP, 2 mM MgCl2, 2 mM DTT. In nucleoprotein formation stimulation assays or supershift experiments, BRCA2Ex14 or BRCA2Ex14-AAA were added for a further 30 min at 4 °C. […] Glycerol was added at a final concentration of 3%, and samples were analysed by electrophoresis on a 1% (w/v) (for DMC1) or 0.66% (w/v) (for RAD51) agarose gel in 0.5x TAE pH 8.0 at 20–40 V for ~4 h at 4 °C. DNA was detected by FAM using a Typhoon^TM FLA 9500 (GE Healthcare), with 473 nm laser at excitation wavelength 490 nm and emission wavelength 520 nm, using the LPB filter and a PMT voltage of 500 V. To analyse RAD51 nucleoprotein filaments assembled upon 100-base poly(dT) ssDNA, gels were stained post-run using SYBR^TM Gold Nucleic Acid Gel Stain (Invitrogen) and detected using a Typhoon^TM FLA 9500 (GE Healthcare).

DMC1 ΔN F85E = test: Amylose pull-down of His-DMC1 ΔN F85E (monomeric) with MBP-BRCA2 fusions; format: binding, human; conditions: lysates mixed; MBP-BRCA2 fusion; 20 mM Tris pH 8.0, 500 mM KCl, 2 mM DTT
Description: (§2) For affinity experiments involving DMC1 ΔN V179E and F85E, MBP-fusions of BRCA2 fragments (Ex14, amino-acids 2387-2420, Ex14-Tr, amino acids 2401-2414, BRC4, amino acids 1519-1551) were cloned into pMAT11 vectors and DMC1 ΔN mutants (V179E or F85E) were cloned into pHAT4 vectors. Lysates of bacterial cultures expressing His6-DMC1 mutants or MBP-BRCA2 constructs were mixed, and complexes were purified through amylose affinity chromatography in 20 mM Tris pH 8.0, 500 mM KCl, 2 mM DTT and eluted using 30 mM D-maltose.

DMC1 ΔN = target: T1, DMC1 ΔN; test: Amylose pull-down of DMC1 ΔN with MBP-BRCA2 fusions; format: binding; conditions: recombinant co-expression with MBP-BRCA2 fusion
Description: (§3) For affinity pulldown experiments, MBP-fusions of BRCA2 fragments (Ex14, amino-acids 2387-2420, Ex14-Tr, amino acids 2401-2414, Ex27, amino acids 3270-3315, BRC4, amino acids 1519-1551) were cloned into pMAT11 vectors[54] and co-expressed with DMC1 ΔN, DMC1 ΔN loop mutant (in which DMC1 amino acids 147-GAGGYPG-153 and 178-NVDHDA-183 were replaced by the cognate sequences of RAD51 148-IDRGGGE-154 and 179-GLSGSD-184), RAD51 ΔN, RAD51 ΔN loop mutant (the reverse switch of DMC1 ΔN loop mutant), and RAD51. MBP-fusions and complexes were purified through amylose affinity chromatography.

DMC1 ΔN loop mutant = target: T2, DMC1 ΔN loop mutant; test: Amylose pull-down of DMC1 ΔN loop mutant with MBP-BRCA2 fusions; format: binding; conditions: recombinant co-expression with MBP-BRCA2 fusion
Description: as §3

RAD51-ssDNA filaments [2] = test: EMSA, protection of RAD51-ssDNA filaments from BRC4-mediated disruption (random sequence ssDNA); format: biochemical; conditions: 100-nt random ssDNA; 10-fold excess of Ex27
Description: as §1

RAD51-ssDNA filaments [3] = test: EMSA, BRC4-mediated disruption of RAD51-ssDNA filaments (random sequence ssDNA); format: biochemical; conditions: 100-nt random ssDNA; equimolar BRC4
Description: as §1

DMC1-ssDNA filaments = test: EMSA, BRC4-mediated disruption of DMC1-ssDNA filaments; format: biochemical, human; conditions: TEA pH 7.5 + KCl; stoichiometric excess of BRC4 (5-fold, 10-fold elsewhere in the source)
Description: Finally, we tested whether binding of BRCA2 Ex14 protects DMC1-ssDNA nucleoprotein filaments from BRC4-mediated disruption (Fig. 3c). […] Further, whilst the core PhePP interaction site is sufficient to stimulate DMC1-ssDNA nucleoprotein filament formation, surrounding amino-acids that are present within Ex14 (but not Ex14-Tr) are necessary to super-shift filaments and confer protection from BRC4-mediated disruption.
as §1, with “KCl.” for “KCl. For RAD51, reaction buffer is 50 mM TEA (triethanolamine), 2 mM ATP, 0.5 mM MgCl2, 2 mM DTT. For assays requiring incomplete nucleoprotein filament assembly, the reaction buffer consisted of 50 mM TAE (tris, acetate, EDTA) pH 7.5, 2 mM ATP, 2 mM MgCl2, 2 mM DTT. In nucleoprotein formation stimulation assays or supershift experiments, BRCA2Ex14 or BRCA2Ex14-AAA were added for a further 30 min at 4 °C.”

DMC1 ΔN V179E = test: Amylose pull-down of His-DMC1 ΔN V179E with MBP-BRCA2 fusions; format: binding, human; conditions: lysates mixed; MBP-BRCA2 fusion; 20 mM Tris pH 8.0, 500 mM KCl, 2 mM DTT
Description: as §2

DMC1 = target: T3, DMC1; test: EMSA; TEA + 200 mM KCl, 1 mM ATP, 2 mM Mg2+; largely complete at 3 nt per protomer (11 µM DMC1); DMC1: 25 mM TEA (triethanolamine) pH 7.5, 200 mM KCl, 1 mM ATP, 2 mM MgCl2, 0.1 mg/ml BSA, 2 mM DTT, or 50 mM TAE pH 7.5, 2 mM ATP, 2 mM MgCl2, 2 mM DTT; RAD51: 50 mM TEA, 2 mM ATP, 0.5 mM MgCl2, 2 mM DTT; all 4 C, agarose gel in 0.5x TAE; conditions: protein: recombinant; tags: His6 removed by TEV; chain copies: 8; label: 5'-FAM; single strand
RAD51;BRCA2 Ex27 = RAD51;BRCA2 Ex27 (Homo sapiens?;Homo sapiens?, UniProt Q06609;P51587 1-339;3270-3315, |); test: EMSA, BRC4 protection; 10-fold excess Ex27 + BRC4; protected, less complete than on poly(dT); DMC1: 25 mM TEA (triethanolamine) pH 7.5, 200 mM KCl, 1 mM ATP, 2 mM MgCl2, 0.1 mg/ml BSA, 2 mM DTT, or 50 mM TAE pH 7.5, 2 mM ATP, 2 mM MgCl2, 2 mM DTT; RAD51: 50 mM TEA, 2 mM ATP, 0.5 mM MgCl2, 2 mM DTT; all 4 C, agarose gel in 0.5x TAE; conditions: tags: ;; label: 5'-FAM; single strand
DMC1;BRCA2 Ex14-Tr = target: T4, DMC1;BRCA2 Ex14-Tr; test: EMSA; TAE + Ex14-Tr; mostly stimulated filament formation; DMC1: 25 mM TEA (triethanolamine) pH 7.5, 200 mM KCl, 1 mM ATP, 2 mM MgCl2, 0.1 mg/ml BSA, 2 mM DTT, or 50 mM TAE pH 7.5, 2 mM ATP, 2 mM MgCl2, 2 mM DTT; RAD51: 50 mM TEA, 2 mM ATP, 0.5 mM MgCl2, 2 mM DTT; all 4 C, agarose gel in 0.5x TAE; conditions: tags: His6 removed by TEV;; label: 5'-FAM; single strand
DMC1;BRCA2 Ex14 = target: T5, DMC1;BRCA2 Ex14; test: EMSA, BRC4 protection; TEA + KCl; 110 µM Ex14, 10-fold excess BRC4, protected; DMC1: 25 mM TEA (triethanolamine) pH 7.5, 200 mM KCl, 1 mM ATP, 2 mM MgCl2, 0.1 mg/ml BSA, 2 mM DTT, or 50 mM TAE pH 7.5, 2 mM ATP, 2 mM MgCl2, 2 mM DTT; RAD51: 50 mM TEA, 2 mM ATP, 0.5 mM MgCl2, 2 mM DTT; all 4 C, agarose gel in 0.5x TAE; conditions: protein: recombinant;recombinant; tags: His6 removed by TEV;His6-MBP removed by TEV; label: 5'-FAM; single strand

binding in pull-down (DMC1 ΔN F85E)	binding in pull-down (DMC1 ΔN)	binding in pull-down (DMC1 ΔN loop mutant)	binding in pull-down (DMC1 ΔN V179E)	Molecule	disruption of RAD51 L180E-ssDNA filaments [1]	protection of RAD51-ssDNA filaments from BRC4-mediated disruption (RAD51-ssDNA filaments [2])	disruption of RAD51-ssDNA filaments (RAD51-ssDNA filaments [3])	disruption of DMC1-ssDNA filaments (DMC1-ssDNA filaments)	binding result (DMC1)	binding result (RAD51;BRCA2 Ex27)	binding result (DMC1;BRCA2 Ex14-Tr)	binding result (DMC1;BRCA2 Ex14)
retained binding	bind	retained its interaction	retained binding	BRC4: BRCA2 BRC repeat 4 peptide, amino acids 1519-1551 (PTLLGFHTASGKKVKIAKESLDKVKNLFDEKEQ; not fully specified; left off: His6, end not stated, state not stated | MBP, end not stated, kept) [reference compound]	underwent similar disruption	partially disrupt filaments	disrupted	completely disrupted				
				100-nt random-sequence ssDNA (ssDNA) DNA: AATTCTCATTTTACTTACCGGACGCTATTAGCAGTGGGTGAGCAAAAACAGGAAGGCAAAATGCCGCAAAAAAGGGAATAAGGGCGACACGGAAATGTTG					binds	binds	binds	binds
